The values below come from US8470889B2 (TRT Pharma Inc., priority 2008, dated 2013).

One data set concerns 22Rv1 cells. Briefly: MTT cell growth inhibition, 22Rv1. Particulars: MTT.
The test system of the next data set is PC-3 cells. The data set can be described thus: MTT cell growth inhibition, PC-3. Particulars: for Cellular IC50 (μM) PC-3: Table 2, 72 h, max tested 50 μM (β-ionone 150 μM).
A further data set concerns LNCaP cells. Briefly: MTT cell growth inhibition, LNCaP.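 Note: MTT formazan absorbance at 600 nm read after 72 h of compound exposure, IC50 fitted by nonlinear regression of dose-response curves, samples run in triplicate.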
In another data set the test system is C4-2B cells. The data set can be described thus: MTT cell growth inhibition, C4-2B.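 Note: cells treated with a dilution series for 72 h, then MTT added and absorbance read at 600 nm, IC50 fitted from dose-response curves by nonlinear regression.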
Where [1] appears, read: read-out: Cellular IC50 (μM) 22Rv1, Table 8.
The mark [2] stands for this setting: read-out: Cellular IC50 (μM) PC3, Table 8.
Where [3] appears, read: read-out: Cellular IC50 (μM) LNCaP, Table 8.
Setting [4] is: read-out: Cellular IC50 (μM) C4-2B, Table 8.
Where [5] appears, read: read-out: Cellular IC50 (μM) C4-2B, Table 2, 72 h.
Where [6] appears, read: read-out: Cellular IC50 (μM) 22Rv1, Table 2, 72 h.
Where [7] appears, read: read-out: Cellular IC50 (μM) PC-3, Table 2, 72 h, max tested 50 μM (β-ionone 150 μM).
Where [8] appears, read: read-out: Cellular IC50 (μM) LNCaP, Table 2, 72 h.
Setting [9] is: read-out: Cellular IC50 (μM) C4-2B, Table 9.
[10] abbreviates: read-out: Cellular IC50 (μM) 22Rv1, Table 9.
[11] abbreviates: read-out: Cellular IC50 (μM) PC-3, Table 9.
[12] abbreviates: read-out: Cellular IC50 (μM) LNCaP, Table 9.
Where [13] appears, read: read-out: IC50 (μM) C4-2B, Table 1, 72 h.
[14] abbreviates: read-out: IC50 (μM) PC-3, Table 1, 72 h, maximum tested concentration 50 μM.
[15] abbreviates: read-out: IC50 (μM) LNCaP, Table 1, 72 h.

Read-outs that look alike come from different tables or passages of the source.

Experimental for 22Rv1 cells: (§1) MDA PCa 2b was seeded at the same density in medium BRFF-HPC1 (Athena Enzyme Systems, Baltimore, Md., USA) supplemented with 20% FBS. After overnight incubation, the medium was changed to a fresh medium containing different concentrations of test compounds diluted from stock DMSO solution. The final concentration of DMSO is 0.5%. After 72 h of incubation with test compounds, 20 μL of 3-(4,5-dimethyl thiazol-2-yl)-2,5-diphenyltetrazolium bromide (MTT) solution (5 mg/mL in PBS) were added to each well and incubated further for 2 h. Next, the supernatant was aspirated and the MTT formazan formed by metabolically viable cells was dissolved in 100 μL of isopropanol. The plates were mixed for 30 min, and the absorbance was measured at 600 nm on a plate reader (FLUOstar OPTIMA, BMG LabTech). All samples were in triplicate. The IC50 values were determined from dose-response curves by nonlinear regression using PRISM v5.00 (GraphPad Software Inc, La Jolla, Calif., USA).
(§2) The in vitro cytotoxicity of 1-20 were evaluated by MTT assays in a panel of prostate cancer cell lines, including LNCaP, MDA PCa 2b, 22Rv1, C4-2B and PC-3.
Experimental for C4-2B cells: as §1, §2

`COc1ccc(/C=C/C(=O)/C=C/C2=C(C)C(O)CCC2(C)C)cc1OC` (centres unmarked) [Compound B70]: the IC50 in the data set on 22Rv1 cells (setting [1]) stood at 8.2 µM; with PC-3 cells (setting [2]), 6.8 µM; in the data set with LNCaP cells (setting [3]), 2.1 µM.
As to `CC1=C(/C=C/C(=O)/C=C/c2ccc(OC(F)(F)F)cc2)C(C)(C)CCC1O` (centres unmarked) [Compound B54], the figures for the IC50 in the data set on PC-3 cells (setting [2]) and with LNCaP cells (setting [3]) were 6.6 µM and 1.3 µM, respectively.
For `CC1=C(/C=C/C(=O)/C=C/c2ccc(-c3cncnc3)cc2)C(C)(C)CCC1O` (centres unmarked) [Compound B58], the IC50 in the data set with C4-2B cells (setting [4]) turned out to be 2.1 µM; in the data set on 22Rv1 cells (setting [1]), 3.8 µM; in the data set on PC-3 cells (setting [2]), 4.3 µM; in the data set with LNCaP cells (setting [3]) it was 1.5 µM.
Take `COc1ccc(C=CC(=O)C(=Cc2ccc(OC)c(O)c2)C(=O)C=CC2=C(C)CCCC2(C)C)cc1O` [Compound 11]: the IC50 with C4-2B cells (setting [5]) worked out at 4.5 µM; in the data set with 22Rv1 cells (setting [6]), 5.2 µM; in the data set with PC-3 cells (setting [7]), 29.2 µM; in the data set with LNCaP cells (setting [8]) it was 7.3 µM.
As to `COc1ccc(/C=C/C(=O)/C(=C/c2ccc(OC)nc2)C(=O)/C=C/C2=C(C)CCCC2(C)C)cn1` [Compound 17], the IC50 with C4-2B cells (setting [5]) amounted to 12.2 µM; in the data set with 22Rv1 cells (setting [6]), 9.9 µM; in the data set on PC-3 cells (setting [7]) it was 31 µM; in the data set on LNCaP cells (setting [8]) it was 15.7 µM.
As to `CC(=O)/C=C/C1=C(C)CCCC1(C)C` [β-Ionone, reference compound], the “Cellular IC50 (μM) PC-3” value with PC-3 cells is given as “Inactive^e”. Further, in the data set on PC-3 cells (Table 5, β-ionone max tested 150 μM), the “Cytotoxicity, IC50 (μM) PC-3” value is given as “Inactive^b”. For the same compound, the IC50 is 151 µM with LNCaP cells (setting [8]) and 151 µM with LNCaP cells (read-out: Cytotoxicity, IC50 (μM) LNCaP, Table 5).
With `CC1(C)CCC(O)C=C1/C=C/C(=O)/C=C/c1c[nH]c2ccc(Br)cc12` (centres unmarked) [Compound B85], the IC50 with C4-2B cells (setting [9]) amounted to 4.8 µM; with 22Rv1 cells (setting [10]), 4 µM; in the data set with PC-3 cells (setting [11]) it was 5.8 µM; in the data set with LNCaP cells (setting [12]), 2.2 µM.
Regarding `CCOc1ccc(/C=C/C(O)=C/C(=O)/C=C/C2=C(C)CCCC2(C)C)cc1OCC` [Compound 4], the IC50 with C4-2B cells (setting [13]) was 22.6 µM; in the data set on PC-3 cells (setting [14]), 53.3 µM; in the data set on LNCaP cells (setting [15]), 30 µM.
For the compound `Cn1c(/C=C/C(=O)/C=C/C2=CC(O)CCC2(C)C)cc2ccccc21` (centres unmarked) [Compound B80], the values for the IC50 in the data set on 22Rv1 cells (setting [10]), with PC-3 cells (setting [11]) and in the data set on LNCaP cells (setting [12]) were 9.5 µM, 19.8 µM and 7 µM, respectively.
`CCOc1ccc(/C=C/C(=O)/C=C/C2=C(C)C(O)CCC2(C)C)cc1OCC` (centres unmarked) [Compound B71]: the IC50 with C4-2B cells (setting [4]) worked out at 10.5 µM; in the data set on 22Rv1 cells (setting [1]) it was 8.6 µM; in the data set on PC-3 cells (setting [2]), 36.1 µM; in the data set with LNCaP cells (setting [3]), 5.5 µM.
Consider `COc1ccc(C=CC(=O)C(=Cc2ccc(OC)c(OC)c2)C(=O)C=CC2=C(C)CCCC2(C)C)cc1OC` [Compound 12], for which the IC50 was 54.4 µM in the data set with C4-2B cells (setting [5]), 49.7 µM in the data set on 22Rv1 cells (setting [6]), 34.3 µM with PC-3 cells (setting [7]) and 15.9 µM with LNCaP cells (setting [8]).
On to `CC1(C)CCC(O)C=C1/C=C/C(=O)/C=C/c1ccc2ccccc2n1` (centres unmarked) [Compound B94], for which the IC50 with C4-2B cells (setting [9]) was 1.5 µM; in the data set on 22Rv1 cells (setting [10]), 2.7 µM; with PC-3 cells (setting [11]) it was 5.5 µM; in the data set with LNCaP cells (setting [12]) it was 2 µM.
Turning to `CC1=C(/C=C/C(=O)/C=C/c2cccc(OC(F)(F)C(F)F)c2)C(C)(C)CCC1O` (centres unmarked) [Compound B47], the IC50 was determined as 1.8 µM in the data set with 22Rv1 cells (setting [1]), 4.6 µM in the data set on PC-3 cells (setting [2]) and 1.6 µM in the data set with LNCaP cells (setting [3]).
For the compound `CCn1c2ccccc2c2cc(/C=C/C(=O)/C=C/C3=CC(O)CCC3(C)C)ccc21` (centres unmarked) [Compound B91], the values for the IC50 with 22Rv1 cells (setting [10]), in the data set on PC-3 cells (setting [11]) and in the data set on LNCaP cells (setting [12]) were 4.7 µM, 8.6 µM and 3.8 µM, respectively.
As for `CC1(C)CCC(O)C=C1/C=C/C(=O)/C=C/c1ccc2c(c1)OCCO2` (centres unmarked) [Compound B78], the IC50 came out at 10.3 µM in the data set with C4-2B cells (setting [9]), 19.3 µM in the data set with 22Rv1 cells (setting [10]), 23.2 µM with PC-3 cells (setting [11]) and 10.8 µM with LNCaP cells (setting [12]).
Consider `CC1(C)CCC(O)C=C1/C=C/C(=O)/C=C/c1ccc2c(c1)OCO2` (centres unmarked) [Compound B76], for which the IC50 came to 6.2 µM in the data set on C4-2B cells (setting [9]), 20.1 µM with 22Rv1 cells (setting [10]), 25.8 µM in the data set on PC-3 cells (setting [11]) and 11.2 µM with LNCaP cells (setting [12]).
For `CC1=C(/C=C/C(=O)/C=C/c2cccc(Oc3ccccc3)c2)C(C)(C)CCC1O` (centres unmarked) [Compound B48], the IC50 with PC-3 cells (setting [2]) came to 2 µM; with LNCaP cells (setting [3]), 2.4 µM.
As to `CCOC(OCC)c1ccc(/C=C/C(=O)/C=C/C2=C(C)C(O)CCC2(C)C)cc1` (centres unmarked) [Compound B61], the IC50 in the data set with C4-2B cells (setting [4]) came to 1.7 µM; in the data set on 22Rv1 cells (setting [1]), 2.1 µM; in the data set with PC-3 cells (setting [2]) it was 3.7 µM; with LNCaP cells (setting [3]), 1.8 µM.
Taken in the same sequence, the figures for `COc1cc(/C=C/C(=O)/C=C/C2=C(C)C(O)CCC2(C)C)cc(OC)c1OC` (centres unmarked) [Compound B72] were 1.7 µM, 3 µM, 4.9 µM and 1.8 µM.
On to `CC1=C(/C=C/C(=O)/C=C/c2cccc(OCc3ccccc3)c2)C(C)(C)CCC1O` (centres unmarked) [Compound B49], for which the IC50 was 2.6 µM in the data set with C4-2B cells (setting [4]), 5.4 µM with 22Rv1 cells (setting [1]), 8 µM in the data set with PC-3 cells (setting [2]) and 5 µM in the data set on LNCaP cells (setting [3]).
On to `CCn1c2ccccc2c2cc(/C=C(\C(=O)/C=C/C3=C(C)CCCC3(C)C)C(=O)/C=C/c3ccc4c(c3)c3ccccc3n4CC)ccc21` [Compound 18], for which the IC50 in the data set with C4-2B cells (setting [5]) came to 28.5 µM; with 22Rv1 cells (setting [6]), 31.6 µM; with LNCaP cells (setting [8]), 11.8 µM. Moreover, the “Cellular IC50 (μM) PC-3” value in the data set on PC-3 cells is on record as “Inactive^c”.
For `CC1=C(/C=C/C(=O)/C=C/c2ccc(N3CCOCC3)cc2)C(C)(C)CCC1O` (centres unmarked) [Compound B60], the IC50 in the data set on PC-3 cells (setting [2]) worked out at 16 µM; in the data set with LNCaP cells (setting [3]), 3.9 µM.
Consider `CC1(C)CCC(O)C=C1/C=C/C(=O)/C=C/c1c[nH]c2ccccc12` (centres unmarked) [Compound B81], for which the IC50 in the data set on C4-2B cells (setting [9]) came out at 2.3 µM; in the data set on 22Rv1 cells (setting [10]), 9.1 µM; with PC-3 cells (setting [11]), 15.2 µM; in the data set on LNCaP cells (setting [12]), 4.6 µM.
In the case of `CC1=C(/C=C/C(=O)/C=C/c2ccccc2C)C(C)(C)CCC1O` (centres unmarked) [Compound B64], the IC50 in the data set on C4-2B cells (setting [4]) was 2.7 µM; in the data set on 22Rv1 cells (setting [1]) it was 4.6 µM; with PC-3 cells (setting [2]) it was 7.6 µM; in the data set on LNCaP cells (setting [3]), 2.5 µM.
In the case of `COc1cc(/C=C/C(O)=C/C(=O)/C=C/C2=C(C)CCCC2(C)C)cc(OC)c1O` [Compound 6], the IC50 was 9.8 µM with C4-2B cells (setting [13]); 12.2 µM in the data set on 22Rv1 cells (read-out: IC50 (μM) 22Rv1, Table 1, 72 h); 26.7 µM with PC-3 cells (setting [14]); 6.2 µM in the data set with LNCaP cells (setting [15]).
`COc1ccc(/C=C/C(O)=C/C(=O)/C=C/C2=C(C)CCCC2(C)C)cn1` [Compound 8]: the results for the IC50 in the data set on PC-3 cells (setting [14]) and in the data set on LNCaP cells (setting [15]) were 52.2 µM and 25.1 µM, respectively.
For the compound `CC1=C(/C=C/C(=O)/C=C/c2ccc(O)cc2)C(C)(C)CCC1O` (centres unmarked) [Compound B52], the IC50 was 10.6 µM in the data set with 22Rv1 cells (setting [1]) and 8.9 µM with LNCaP cells (setting [3]). Further, the “Cellular IC50 (μM) PC3” value in the data set on PC-3 cells (Table 8) is given as “Int”.
For the compound `CC1=C(/C=C/C(=O)/C=C/c2ccc(N(C)C)cc2)C(C)(C)CCC1O` (centres unmarked) [Compound B63], the IC50 in the data set on 22Rv1 cells (setting [1]) was 42 µM; with PC-3 cells (setting [2]) it was 13 µM; with LNCaP cells (setting [3]) it was 8.8 µM.
With `COc1ccc(/C=C/C(O)=C/C(=O)/C=C/C2=C(C)CCCC2(C)C)cc1O` [Compound 2], the IC50 is 23.1 µM in the data set on C4-2B cells (setting [13]), 38.3 µM in the data set with PC-3 cells (setting [14]) and 25.9 µM in the data set with LNCaP cells (setting [15]).
`CC1=C(/C=C/C(=O)/C=C/c2cccc(OC(F)(F)F)c2)C(C)(C)CCC1O` (centres unmarked) [Compound B46]: the IC50 with PC-3 cells (setting [2]) was determined as 1.7 µM; in the data set on LNCaP cells (setting [3]), 1.4 µM.
As for `COc1ccc(/C=C/C(O)=C/C(=O)/C=C/C2=C(C)CCCC2(C)C)cc1OC` [Compound 3], the figures for the IC50 in the data set on C4-2B cells (setting [13]), in the data set with PC-3 cells (setting [14]) and with LNCaP cells (setting [15]) were 30.6 µM, 47.9 µM and 26.4 µM, respectively.
As to `CC1(C)CCC(O)C=C1/C=C/C(=O)/C=C/c1ccc2c(c1)OC(F)(F)O2` (centres unmarked) [Compound B77], the IC50 in the data set with PC-3 cells (setting [11]) turned out to be 3.2 µM; with LNCaP cells (setting [12]), 1.1 µM.
